The values below come from US20250049791A1, “Synthesis of MEK7 Inhibitors and methods of Use Thereof” (Northwestern University, priority 2023, published 2025).

“Also recorded” adds a separate entry of the source. Read-outs that look alike come from different tables or passages of the source.

By IC50 is commonly meant the concentration that gives 50% inhibition.

The test system of test [1] is p38α/β. Nature of the test: ScanEDGE competition binding, p38α/β. Conditions: ScanEDGE screen. The text has this: (§1) The ScanEDGE assay, completed by DiscoverX (Eurofins) is a proprietary active site-directed competition binding assay. Compounds that bind the kinase active site prevent kinase binding to the immobilized ligand, reducing the amount of kinase captured on the solid support. Hits are identified by measuring the amount of kinase captured in experimental vs, control samples by a qPCR method that detects an associated DNA label. According to data provided by Eurofins, a typical hit at 5-10% of control signal in a 1 μM assay as shown above is generally associated with a KD in the range of 100-1,000 nM. Readings with greater than 35% of control signal correspond to exceeding large dissociation constants.

Test [2] relates to JNK1/2/3. Nature of the test: ScanEDGE competition binding, JNK1/2/3. Conditions: ScanEDGE screen.
Description: as §1

Test [3] concerns the target T1, MAP2K7 recombinant protein (Homo sapiens, UniProt O14733).
T1 construct: purchased Carna Biosciences 07-147-10; host or cells: E. coli
T1 sequence (O14733 1-419): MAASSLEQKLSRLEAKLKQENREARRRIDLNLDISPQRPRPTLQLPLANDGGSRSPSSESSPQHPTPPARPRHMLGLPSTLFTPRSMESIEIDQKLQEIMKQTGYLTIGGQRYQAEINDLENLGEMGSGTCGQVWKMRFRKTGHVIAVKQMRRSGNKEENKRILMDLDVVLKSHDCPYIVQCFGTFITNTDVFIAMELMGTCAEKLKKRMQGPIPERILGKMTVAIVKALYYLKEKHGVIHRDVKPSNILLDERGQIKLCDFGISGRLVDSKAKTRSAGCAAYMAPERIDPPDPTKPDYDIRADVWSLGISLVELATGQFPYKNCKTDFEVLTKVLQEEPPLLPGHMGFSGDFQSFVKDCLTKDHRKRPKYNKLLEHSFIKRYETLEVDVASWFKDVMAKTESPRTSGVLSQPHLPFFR
Nature of the test: LC/MS-MS determination of residue selectivity. The format is binding. As for the experimental part:
MAP2K7 recombinant protein was diluted, purified, and incubated as described above. After incubation, protein solution was denatured with 8 M urea for 10 minutes at 65° C., reduced with 12.5 mM DTT for 15 minutes at 65° C., and alkylated with 25 mM iodoacetamide in the absence of light for 30 minutes at 37° C. Protein solution was diluted with PBS to 2 M urea and divided into two digestion reactions: one with 2 μg trypsin and 10 μg chymotrypsin for 6 hours at 37° C., the other with 5 μg GluC for 6 hours at 37° C. Digested peptides were acidified with 5% formic acid and desalted using Sep-Pak C18 1 cc Vac Cartridge (Waters). Peptides were analyzed by liquid chromatography tandem mass-spectrometry using an Orbitrap Eclipse Tribrid Mass Spectrometer (Thermo Scientific) coupled to an Vanquish Neo UHPLC System (Thermo Scientific). Peptides were injected onto EASY-Spray HPLC Column (C18, 2 μm particle size, 75 μm inner diameter, 250 mm length) and separated at a flow rate of […] using the following gradient: 5% buffer B (80% acetonitrile with 0.1% formic acid) in buffer A (water with 0.1% formic acid) from 0-15 min, 5-45% buffer B from 15-155 min, 45-100% buffer B from 155-180 min. Raw data was searched in Proteome Discoverer 2.5 (Thermo Scientific).

Test [4] addresses T2, MEK5 (Homo sapiens, UniProt Q13163).
T2 sequence (Q13163 1-448): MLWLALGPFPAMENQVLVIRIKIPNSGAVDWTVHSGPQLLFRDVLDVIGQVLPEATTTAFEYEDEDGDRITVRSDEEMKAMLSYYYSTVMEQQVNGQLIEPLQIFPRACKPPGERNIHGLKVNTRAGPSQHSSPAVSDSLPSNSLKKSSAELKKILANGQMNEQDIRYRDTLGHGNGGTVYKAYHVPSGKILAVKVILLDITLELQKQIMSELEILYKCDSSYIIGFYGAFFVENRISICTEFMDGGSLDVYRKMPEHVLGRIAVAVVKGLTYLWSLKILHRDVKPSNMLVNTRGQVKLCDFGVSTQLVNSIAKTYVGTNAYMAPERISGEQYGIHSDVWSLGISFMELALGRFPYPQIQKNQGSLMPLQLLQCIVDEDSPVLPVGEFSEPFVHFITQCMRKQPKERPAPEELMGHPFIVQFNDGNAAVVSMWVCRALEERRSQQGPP
Nature of the test: Additional selectivity assay, MEK5 (FIG. 9). The format is binding.

For test [5], the target named is T3, recombinant active full-length human MEK7 (Homo sapiens, UniProt O14733).
T3 construct: recombinant active full-length human MEK7 (Carna Biosciences); purchased Carna Biosciences
T3 sequence (O14733 1-419): T1 sequence (O14733 1-419)
Nature of the test: ADP-Glo kinase activity assay, MEK7 with JNK1 substrate. The test is classed as biochemical. (ADP-Glo turns the ADP formed in a reaction into a luminescent signal.)

`O=C(CCl)Nc1cccc(Oc2cc(NCc3ccccc3)ncn2)c1` [Compound 25, N-(3-((6-(benzylamino)pyrimidin-4-yl)oxy)phenyl)-2-chloroacetamide]: the “activity on p38α/β” value in test [1] is listed as “no appreciable activity”. In addition, the “activity on JNK1/2/3” value in test [2] is reported as “no appreciable activity”. For the same compound, the “cysteine residue covalently engaged, GluC digest” value in test [3] is “Cys341”. The “cysteine residue covalently engaged, trypsin/chymotrypsin digest” value in test [3] was “Cys218”. For the same compound, in test [4], the “activity/binding at MEK5” value is “inactive; also recorded: lack of binding”. In addition, the IC50 was 10 nM in test [5] (30 min preincubation, read-out: MEK7 IC50); 17 nM in test [5] (MEK7 IC50, first experiment (IC50±SEM, n=3), 30 min preincubation, first value in brackets); below 1.4 nM in test [5] (MEK7 IC50, second experiment (IC50±SEM, n=3), 30 min preincubation, second value in brackets); 67 ± 21 nM in test [5] (MEK7 IC50 without preincubation, first experiment (n=3), without preincubation, first value in brackets); 119 nM in test [5] (MEK7 IC50 without preincubation, second experiment (n=3), without preincubation, second value in brackets); 93 nM in test [5] (without 30 min preincubation, overall value, read-out: MEK7 IC50 without preincubation). In test [5] (without preincubation, no unit printed, read-out: MEK7 IC50 without preincubation), the IC50 is 93 nM.
